From US10172306B2, “Production of ingenol, ingenol esters and/or tiglian-3-one derivatives by euphorbiaceae plant cell suspension cultures” (Phyton Holdings, LLC, priority 2015, dated 2019)

System: suspension culture of E. peplus
Assay: Precursor feeding of E. peplus suspension culture with angelic acid: cell growth
Assay type: cell-based, Euphorbia peplus
Conditions: 0.5 mM angelic acid added to E. peplus suspension culture, cultivated for 7-14 days; sterile water as negative control
Procedure: Further increase of Ingenol-3-angelate was achieved using angelic acid as a precursor. A suspension culture of E. peplus, newly transferred or up to 14 days old, was supplemented with 0.5 mM angelic acid. […] The same amount of sterile water was used as a negative control. After addition of angelic acid, the culture was cultivated for 7-14 days (see FIG. 6).

C/C=C(/C)C(=O)O [angelic acid, 2-methyl-2(Z)-butenoic acid]
influence on cell growth: no influence on cell growth
